Reference: publication PMC9760430, “A stapled chromogranin A-derived peptide homes in on tumors that express αvβ6 or αvβ8 integrins” (International Journal of Biological Sciences, 2023)

Columns and labels:
[1] = plasma pharmacokinetics in mice; type: in vivo; conditions: BALB/c mice, 1 nmol i.v.; plasma fluorescence 5-1440 min; two-phase exponential decay fit; 4 mice per point
Experimental: Figure S13. Plasma pharmacokinetics of 5a-IRDye in mice.
Eight BALB/c mice were divided in 2 groups (4 mice/group) and injected i.v. with 5a-IRDye (1 nmol). Their blood was then collected into heparinized tubes at 5, 30, 120, 240, and 1440 min (group 1) or after 15, 60, 180, 360, and 1440 min (group 2). Plasma samples (20 µl) were diluted with PBS (50 µl, final volume) and transferred to a black 96-well microtiter plate. The amount of fluorescence in each sample was then quantified using an Infinite 200Pro reader plate (TECAN, excitation wavelength: 766 nm; emission wavelength: 810 nm; excitation bandwidth: 9 nm; emission bandwidth: 20 nm; gain: 180 optimal (100%) and number of flashes:
25). (Dots, mean ± SE, 4 mice). Plasma half-life of 5a-IRdye was calculated using a two-phase exponential decay equation (GraphPad Prism software, San Diego California).
Chromogranin A binds to avb6-integrin and promotes wound healing in mice. Cell Mol […]
(1 picture or pasted object on this page, not shown here)

[2] = tested on: human umbilical vein endothelial cells (HUVECs) (αvβ6- and αvβ8-); experiment: binding of peptide-IRDye conjugates to cultured HUVECs; type: cell-based; conditions: 0.32-200 nM, 1 h, 37 °C; bound NIR fluorescence
Experimental: (§1) To assess the binding of peptide-IRDye conjugates to cells various amounts of conjugates (range 0.32-200 nM) were added to cultured cells and left to incubate for 1 h at 37 °C. After three washings, the cells were fixed and analyzed by scanning the plate with the Odyssey CLx.
(§2) A control conjugate with a cysteine in place of the peptide was also prepared in parallel. The identity of the purified products, called 5a-IRDye, 2a-IRDye, and Cys-IRDye, was confirmed by mass spectrometry analysis (Table S1). In addition, the purity and identity of 5a-IRDye was monitored by liquid chromatography–mass spectrometry (LC-MS). […]
(§3) that the product consist of a single peak at 230 and 735 nm with the expected molecular weight (purity >95%) (Figure S3A).
(§4) The simplified molecular-input line-entry system (SMILES) of 5a-, 2a-, Cys- and 5a-Scr- […]
(§5) The concentration of each conjugate was quantified by spectrophotometric analysis at 774 nm (molar absorption coefficient, 240,000 M-1, cm-1) (Figure S3B). […]
(§6) The binding of peptide-IRDye conjugates to BxPC-3, 5M7101, and HUVECs cells was analyzed as follows. […]
(§7) chloride and 1% BSA (binding buffer) for 5 min. […] Binding of conjugates to cells was quantified by scanning the plate (filled with PBS, 100 µl/well) with the Odyssey CLx (LI-COR) using the above settings, except that the scan focus offset and scan intensity were set to 4 and 8.5, respectively. […]

[3] = tested on: BxPC-3 cells (αvβ6+/αvβ8-); experiment: binding of peptide-IRDye conjugates to cultured BxPC-3 cells; type: cell-based, human; conditions: 0.32-200 nM, 1 h, 37 °C; bound NIR fluorescence
[4] = tested on: 5M7101 pancreatic adenocarcinoma cells (αvβ6+ and αvβ8-); experiment: binding of peptide-IRDye conjugates to cultured 5M7101 cells; type: cell-based, murine; conditions: 0.32-200 nM, 1 h, 37 °C; bound NIR fluorescence
Experimental: as §1, §2, §3, §4, §5, §6, §7

SMILES | plasma half-life [1] | binding of conjugate to HUVECs [2] | binding of conjugate to BxPC-3 cells [3] | binding of conjugate to 5M7101 cells [4]
CC[C@H](C)[C@H](NC(=O)[C@H](CCCNC(=N)N)NC(=O)[C@H](CC(C)C)NC(=O)[C@H](CC(=O)O)NC(=O)CNC(=O)[C@H](CCCNC(=N)N)NC(=O)[C@H](CC(C)C)NC(=O)[C@@H](NC(=O)[C@H](CCC(=O)O)NC(=O)[C@H](Cc1ccccc1)NC(=O)[C@@H](N)CSC1CC(=O)N(CCNC(=O)CCCCCN2C(=CC=C3CCCC(C=CC4=[N+](CCCCS(=O)(=O)[O-])c5ccc(S(=O)(=O)O)cc5C4(C)C)=C3Oc3ccc(S(=O)(=O)O)cc3)C(C)(C)c3cc(S(=O)(=O)O)ccc32)C1=O)[C@@H](C)O)C(=O)N[C@@H](CC(C)C)C(=O)N[C@@H](CO)C(=O)N[C@H](C(=O)N[C@@H](CC(C)C)C(=O)N[C@@H](CCCNC(=N)N)C(=O)N[C@H]1Cc2cn(nn2)CCCC[C@@H](C(=O)N[C@@H](CCCCN)C(=O)N[C@@H](CCC(=O)O)C(=O)N[C@@H](CC(C)C)C(=O)N[C@@H](CCC(N)=O)C(=O)N[C@@H](CC(=O)O)C(N)=O)NC(=O)[C@H](CC(C)C)NC(=O)[C@H](CC(N)=O)NC(=O)[C@H](CCC(N)=O)NC1=O)[C@@H](C)CC (stereo partly shown) [5a-IRDye] | ~ 8 min |  |  | 
CC1(C)C(/C=C/C2=C(Oc3ccc(S(=O)(=O)O)cc3)C(=C\C=C3/N(CCCCCC(=O)NCCN4C(=O)CC(SC[C@H](N)C(=O)O)C4=O)c4ccc(S(=O)(=O)O)cc4C3(C)C)/CCC2)=[N+](CCCCS(=O)(=O)O)c2ccc(S(=O)(=O)[O-])cc21 (stereo partly shown) [Cys-IRDye] |  | little or no binding | little or no binding | little or no binding
